Measured values published in article PMC4596688, “Structural determinants of nuclear export signal orientation in binding to exportin CRM1” (eLife, 2015).
Where two headings read alike, the source gives them in different places.

Assays:
human CRM1 = experiment: In vitro CRM1-NES pull-down binding assay (immobilized GST-NES); conditions: immobilized GST-PKI^NES mutants, purified CRM1 and RanGTP; 2.5 μM HsCRM1, 7.5 μM ScRanGTP, 30 min 4°C; Coomassie-stained SDS/PAGE
Method: After affinity purification, ^ScRan was loaded with GTP (incubated with molar excess of ethylenediaminetetraacetic acid (EDTA) for 30 min on ice followed by incubation with excess GTP and MgOAC for 30 min at room temperature) and then purified by ion exchange chromatography (HiTrap SP, GE Healthcare Life Sciences). NESs were cloned into the pGEX-TEV vector ([Chook and Blobel, 1999]), purified, and immobilized on glutathione Sepharose beads (GE Healthcare Life Sciences) in TB buffer described above containing 15% glycerol. 2.5 μM ^HsCRM1 and 7.5 μM ^ScRanGTP were added to ∼10 μg of immobilized GST-NESs in TB buffer in total volumes of 200 μl for 30 min at 4°C. Unbound proteins were washed extensively with TB buffer and bound proteins on the Sepharose beads were separated by sodium dodecyl sulfate polyacrylamide gel electrophoresis (SDS/PAGE) and visualized with Coomassie Blue staining. All binding assays were performed in triplicates. To compare the relative intensities of CRM1 bands to yield an estimate of binding activities of various NES mutants, SDS/PAGE gels were dried and scanned with an Epson V300 scanner and the images analyzed with ImageJ software. CRM1 band intensities were corrected for differences in GST-NESs band intensities and normalized to wild-type control intensity in each set of mutations. Corrected relative CRM1 band intensities were plotted as histograms with standard errors with GraphPad Prism.
To test putative minus NESs identified from the Dbase data set, 5 μM ^HsCRM1 with or without 15 μM ^ScRanGTP were used instead. Putative NESs that show no CRM1 binding were expressed in larger scale and purified by size-exclusion chromatography to assess their aggregation states. They were also subjected to intact mass determination by mass spectroscopy to ensure that the GST-NES proteins were not degraded.

CRM1 = CRM1 (Homo sapiens, UniProt O14980); experiment: Competition differential bleaching assay monitored by microscale thermophoresis instrument (MBP-NES vs FITC-PKI^NES); format: binding; conditions: brackets = 68.3% confidence interval
Sequence of CRM1 (O14980 whole entry, other chains not shown): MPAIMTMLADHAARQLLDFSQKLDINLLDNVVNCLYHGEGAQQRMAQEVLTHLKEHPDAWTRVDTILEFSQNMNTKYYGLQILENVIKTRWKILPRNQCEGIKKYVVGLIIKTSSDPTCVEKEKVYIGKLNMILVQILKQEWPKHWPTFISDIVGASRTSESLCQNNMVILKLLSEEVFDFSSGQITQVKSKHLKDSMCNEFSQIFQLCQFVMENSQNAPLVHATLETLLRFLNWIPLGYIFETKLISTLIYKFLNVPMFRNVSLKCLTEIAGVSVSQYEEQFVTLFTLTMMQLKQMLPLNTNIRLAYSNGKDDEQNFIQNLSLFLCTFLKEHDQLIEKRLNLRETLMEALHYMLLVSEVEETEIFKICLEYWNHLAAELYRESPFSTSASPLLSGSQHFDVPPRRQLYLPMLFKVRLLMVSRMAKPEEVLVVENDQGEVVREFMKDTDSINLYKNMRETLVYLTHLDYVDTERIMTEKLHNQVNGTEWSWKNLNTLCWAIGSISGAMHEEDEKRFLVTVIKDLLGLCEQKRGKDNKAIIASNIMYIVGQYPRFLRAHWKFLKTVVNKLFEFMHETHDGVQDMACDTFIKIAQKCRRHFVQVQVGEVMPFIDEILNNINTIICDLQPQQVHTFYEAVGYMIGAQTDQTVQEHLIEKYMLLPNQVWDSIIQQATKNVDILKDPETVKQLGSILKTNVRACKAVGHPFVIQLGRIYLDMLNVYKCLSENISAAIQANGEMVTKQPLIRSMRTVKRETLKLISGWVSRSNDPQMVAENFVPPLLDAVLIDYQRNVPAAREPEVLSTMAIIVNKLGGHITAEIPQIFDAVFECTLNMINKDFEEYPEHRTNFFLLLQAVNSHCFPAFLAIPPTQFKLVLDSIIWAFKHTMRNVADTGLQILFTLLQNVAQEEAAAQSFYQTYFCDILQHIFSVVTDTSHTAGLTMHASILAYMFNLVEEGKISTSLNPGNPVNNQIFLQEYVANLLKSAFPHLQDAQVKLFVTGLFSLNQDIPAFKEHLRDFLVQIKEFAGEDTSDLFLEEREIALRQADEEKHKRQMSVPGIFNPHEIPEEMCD
From the text: To first investigate whether features of the sequence such as spacings between hydrophobic residues and placement of the ΦXΦ motif are critical in determining directionality of NES binding, we reversed the sequence of the hRio2^NES ([…]) to generate hRio2^NES-R ([…]). We also reversed CPEB4^NES ([…]) to generate CPEB4^NES-R ([…]). Both reversed peptides match the class 1a NES pattern and were predicted to bind CRM1 like the PKI^NES, which is another class 1a NES. Binding affinities of NES peptides to CRM1 were measured in competition differential bleaching experiments using FITC-PKI^NES as a fluorescent probe, MBP-NESs as competitors and monitored with a microscale thermophoresis instrument (Figure 4, Figure 4—figure supplement 1). Wild-type NESs MBP-hRio2^NES and MBP-CPEB4^NES bind CRM1 with KDs of 2200 nM [1600,2900] and 590 nM [400,840], respectively (Figure 4B). The ranges in brackets represent the 68.3% confidence intervals as calculated using F-statistics and error-surface projection method ([Bevington and Robinson, 1992]). […] All of the NES peptides were also cloned into EYFP-NLS-NES fusions and tested for nuclear export activity in HeLa cells.
Differential bleaching was used as a parameter to monitor binding of MBP-NES proteins to CRM1. In short, we observed that the fluorophore reporter attached to PKI^NES (FITC) underwent a reproducible time-dependent bleaching when exposed to excitation light (Figure 4—figure supplement 2). Furthermore, this phenomenon was concentration-dependent, that is, the bleaching was accelerated when the FITC-PKI^NES probe was exposed to increasing concentrations of CRM1. […] The differential bleaching can be counteracted by titrating of mixture of FITC-PKI^NES and CRM1 with a known competitor, MBP-PKI^NES, which competes directly with the fluorescent probe for the NES binding groove in CRM1. A sigmoidal appearance of the binding and competition isotherms is observed when differential bleaching, quantified as the average fluorescence at a time after bleaching normalized by the averaged fluorescence just after the beginning of bleaching, is plotted vs titrant concentration in a semilog graph (see Figure 4).This illustrates that this bleaching behavior can be described as a two-state system where unbound probe and CRM1-bound probe bleach at different but specific rates, and that these quantities report on the populations of bound and unbound FITC-PKI^NES. A detailed description of the data-fitting procedures will be described in manuscript in preparation by C.A.B. For error reporting, we used F-statistics and error-surface projection method to calculate the 68.3% confidence intervals of the fitted data ([Bevington and Robinson, 1992]). While error reporting using the error surface projection method is relatively uncommon, the ranges more accurately represent the true confidence intervals given the observed noise in the performed set of experiments because they explicitly account for the ability of the fitting algorithm to compensate for fitting defects by modifying correlated parameters. Thus, they provide better evaluation of the fitted data than other, more commonly used methods (e.g., error estimations from the parametric variance-covariance matrix).
All proteins used were subjected to an extra gel filtration step and dialysis overnight in TB buffer with 15% glycerol to remove possible aggregation and ensures buffer matching. The FITC-PKI^NES peptide (FITC-[…]) was chemically synthesized by GenScript, NJ and dissolved in the TB buffer with 15% glycerol. For the direct titration, ^HsCRM1 was serially diluted from 40 μM to 1.2 nM and incubated with mixture of 120 μM ^ScRan-GTP and 40 nM FITC-PKI^NES in 1:1 vol to a total volume of 20 μl, and incubated for 1 hr in the dark at room temperature. […]

[1] = competition titration, MBP-NES 100 μM to 3 nM, 40 nM FITC-PKI^NES probe, 300 nM HsCRM1, 120 μM ScRan-GTP, mixed 1:1, TB buffer 15% glycerol, 0.05% Tween-20, 1.5 hr room temperature, triplicate titrations, read-out: KD (dissociation constant of NES binding to CRM1)
[2] = Figure 4—figure supplement 1, shorter hRio2^NES (without C-terminal lysine and glycine) and CPEB4^NES (without C-terminal methionine and arginine) constructs, competition differential bleaching as E1, read-out: KD of shorter NES constructs binding to CRM1

With “GGSYRSFDMNELALKLAGLD [PKI^NES-Flip3, PKI^NES-Flip mutant with N-terminal FDM, GST-fusion]” the “CRM1 binding in pull-down assay” value (human CRM1) was “graded increases in CRM1 binding”.

For GGSYGKIEELAQNFETMEFSR [hRio2^NES-R], the Kd (CRM1; [1]) was 2400 nM.

Work on GGSYRMIDILSSELSHMDFTR [CPEB4^NES-R] yielded a Kd (CRM1; [1]) of 780 nM.

“IDLNELALKLAGL [PKI^NES-Flip1, PKI^NES with inverted LDI at the N-terminus, GST-fusion]” was tested, and the “CRM1 binding in pull-down assay” value (human CRM1) was “does not interact with CRM1”.

In the case of “GGSY^389RSFEMTEFNQALEEI^403 [hRio2^NES, nuclear export signal of hRio2 (residues 389-403), tested as MBP- or GST-fusion]”, the Kd (CRM1; [2]) is reported as 1400 nM and the Kd (CRM1; [1]) is reported as 2200 nM.

“GGSY^379RTFDMHSLESSLIDI^393 [CPEB4^NES, nuclear export signal of CPEB4 (residues 379-393), tested as MBP- or GST-fusion]” gave a Kd (CRM1; [2]) of 1600 nM and a Kd (CRM1; [1]) of 590 nM.

In the case of “FDLNELALKLAGL [PKI^NES-Flip2, PKI^NES-Flip mutant with N-terminal FDL, GST-fusion]”, the “CRM1 binding in pull-down assay” value (human CRM1) is reported as “graded increases in CRM1 binding”.
